Experimental data reported in US20240270821A1, “GIP/GLP1/GCG TRI-RECEPTOR AGONISTS AND USES THEREOF” (priority 2023, published 2024).
pEC50: −log10 of the molar value. Where two headings read alike, the source gives them in different places. Values belong to the compound of their own block, whether it stands above or below them.

Legend:
Assay type in all cases: cell-based
hGIPR [1] = biological target: T1, hGIPR (Homo sapiens, UniProt P48546); assay: Functional cAMP activation in the presence of 0.1% casein (no HSA); details: in the presence of 0.1% casein (no HSA); geometric mean; read-out: Relative cAMP EC50, hGIPR;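 further: intracellular cAMP rise after 30 min at 37 °C read by HTRF against a standard curve, scaled between buffer alone (0%) and top control ligand concentration (100%), four-parameter fit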
T1 sequence (P48546 22-466): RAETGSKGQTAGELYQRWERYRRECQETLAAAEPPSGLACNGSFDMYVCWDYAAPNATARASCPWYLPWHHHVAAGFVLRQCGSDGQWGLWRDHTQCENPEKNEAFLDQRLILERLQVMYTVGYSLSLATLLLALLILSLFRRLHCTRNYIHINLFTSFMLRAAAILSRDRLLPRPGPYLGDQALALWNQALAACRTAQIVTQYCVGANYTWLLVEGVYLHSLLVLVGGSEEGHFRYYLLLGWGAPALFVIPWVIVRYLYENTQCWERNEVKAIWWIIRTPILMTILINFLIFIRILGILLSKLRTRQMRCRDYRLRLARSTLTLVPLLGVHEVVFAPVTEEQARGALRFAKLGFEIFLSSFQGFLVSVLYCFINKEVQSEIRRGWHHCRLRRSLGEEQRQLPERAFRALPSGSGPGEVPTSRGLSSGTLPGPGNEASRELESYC

hGIPR [2] = biological target: T1, hGIPR; assay: Functional cAMP activity in the presence of 1% HSA; details: read-out: cAMP Rel EC50, hGIPR
hGcgR = hGcgR (Homo sapiens, UniProt P47871); assay: Functional cAMP activation in the presence of 0.1% casein (no HSA); details: in the presence of 0.1% casein (no HSA); geometric mean; read-out: Relative cAMP EC50, hGcgR;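 further: intracellular cAMP rise after 30 min at 37 °C, read by HTRF against a cAMP standard curve, scaled from buffer only (0%) to maximal control ligand response (100%)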
Chain of hGcgR (P47871 26-477): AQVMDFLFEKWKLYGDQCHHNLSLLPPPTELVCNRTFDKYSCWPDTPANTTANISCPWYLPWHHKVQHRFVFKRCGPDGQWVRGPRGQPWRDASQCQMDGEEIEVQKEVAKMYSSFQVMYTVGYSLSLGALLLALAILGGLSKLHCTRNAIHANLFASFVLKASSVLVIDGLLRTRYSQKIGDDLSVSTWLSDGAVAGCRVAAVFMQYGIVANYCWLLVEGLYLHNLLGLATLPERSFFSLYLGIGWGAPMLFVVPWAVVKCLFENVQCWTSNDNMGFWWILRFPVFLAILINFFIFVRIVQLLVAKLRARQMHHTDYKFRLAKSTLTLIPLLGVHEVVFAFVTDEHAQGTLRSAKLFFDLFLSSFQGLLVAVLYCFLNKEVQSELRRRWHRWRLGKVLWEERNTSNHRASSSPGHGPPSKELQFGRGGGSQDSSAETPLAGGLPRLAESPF

human GcgR = human GcgR (Homo sapiens, UniProt P47871); assay: Functional cAMP activity in the presence of 1% HSA; details: read-out: cAMP Rel EC50, hGcgR
Chain of human GcgR (P47871 26-477): as above

hGLP-1R [3] = biological target: T2, hGLP-1R (Homo sapiens, UniProt P43220); assay: Functional cAMP activity in the presence of 1% HSA; details: read-out: cAMP Rel EC50, hGLP-1R
T2 sequence (P43220 24-463): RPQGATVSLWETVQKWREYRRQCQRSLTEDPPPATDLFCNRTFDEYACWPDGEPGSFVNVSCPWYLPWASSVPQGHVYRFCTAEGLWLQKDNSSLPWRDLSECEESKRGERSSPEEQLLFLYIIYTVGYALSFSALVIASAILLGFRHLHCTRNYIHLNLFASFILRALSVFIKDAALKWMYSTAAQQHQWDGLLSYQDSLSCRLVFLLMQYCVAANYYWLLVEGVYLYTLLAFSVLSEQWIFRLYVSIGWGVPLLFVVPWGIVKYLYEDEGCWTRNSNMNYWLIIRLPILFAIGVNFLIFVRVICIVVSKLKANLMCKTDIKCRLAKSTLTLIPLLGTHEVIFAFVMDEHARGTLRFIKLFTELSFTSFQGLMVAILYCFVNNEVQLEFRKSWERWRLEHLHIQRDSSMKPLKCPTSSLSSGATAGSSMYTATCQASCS

hGLP-1R [4] = biological target: T2, hGLP-1R; assay: Functional cAMP activation in the presence of 0.1% casein (no HSA); details: in the presence of 0.1% casein (no HSA); geometric mean; read-out: Relative cAMP EC50, hGLP-1R;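 further: intracellular cAMP rise after 30 min at 37 °C read by HTRF, normalized between buffer only (0%) and maximal control ligand (100%), four-parameter variable-slope fit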

Structure (SMILES): CC[C@H](C)[C@H](NC(=O)[C@H](Cc1ccccc1)NC(=O)[C@H](CCC(N)=O)NC(=O)C(C)(C)NC(=O)[C@H](CCC(N)=O)NC(=O)[C@H](C)NC(=O)[C@H](CCCCNC(=O)COCCOCCNC(=O)CC[C@H](NC(=O)CCCCCCCCCCCCCCCCCCC(=O)O)C(=O)O)NC(=O)[C@H](CCCCN)NC(=O)[C@H](CC(=O)O)NC(=O)[C@H](CC(C)C)NC(=O)[C@](C)(CC(C)C)NC(=O)[C@H](CCCCN)NC(=O)[C@H](CO)NC(=O)[C@H](Cc1ccccc1)NC(=O)[C@H](CC(=O)O)NC(=O)[C@H](CO)NC(=O)[C@@H](NC(=O)[C@H](Cc1ccccc1)NC(=O)[C@@H](NC(=O)CNC(=O)[C@H](CCC(N)=O)NC(=O)C(C)(C)NC(=O)[C@@H](N)Cc1ccc(O)cc1)[C@@H](C)O)[C@@H](C)O)C(=O)N[C@@H](CCC(=O)O)C(=O)N[C@@H](Cc1c[nH]c2ccccc12)C(=O)N[C@@H](CC(C)C)C(=O)N[C@@H](CC(C)C)C(=O)N[C@@H](CCC(=O)O)C(=O)NCC(=O)NCC(=O)N1CCC[C@H]1C(=O)N[C@@H](CO)C(=O)N[C@@H](CO)C(=O)NCC(=O)N[C@@H](C)C(=O)N1CCC[C@H]1C(=O)N1CCC[C@H]1C(=O)N1CCC[C@H]1C(=O)N[C@@H](CO)C(=O)N[C@@H](CCC(=O)O)C(=O)NCC(N)=O [Example 38]
pEC50 (hGIPR [1]): 9.52 | pEC50 (hGIPR [2]): 6.99 | pEC50 (hGcgR): 8.02 | pEC50 (human GcgR): 5.56 | pEC50 (hGLP-1R [3]): 6.05

Structure (SMILES): CC[C@H](C)[C@H](NC(=O)[C@H](Cc1ccccc1)NC(=O)[C@H](C)NC(=O)C(C)(C)NC(=O)[C@H](CCC(N)=O)NC(=O)[C@H](C)NC(=O)[C@H](CCCCNC(=O)COCCOCCNC(=O)CC[C@H](NC(=O)CCCCCCCCCCCCCCCCC(=O)O)C(=O)O)NC(=O)[C@H](CCCCN)NC(=O)[C@H](CC(=O)O)NC(=O)[C@H](CC(C)C)NC(=O)[C@](C)(CC(C)C)NC(=O)[C@H](CCCN)NC(=O)[C@H](CO)NC(=O)[C@H](Cc1ccccc1)NC(=O)[C@H](CC(=O)O)NC(=O)[C@H](CO)NC(=O)[C@@H](NC(=O)[C@H](Cc1ccccc1)NC(=O)[C@@H](NC(=O)CNC(=O)[C@H](CCC(N)=O)NC(=O)C(C)(C)NC(=O)[C@@H](N)Cc1ccc(O)cc1)[C@@H](C)O)[C@@H](C)O)C(=O)N[C@@H](CCC(=O)O)C(=O)N[C@@H](Cc1c[nH]c2ccccc12)C(=O)N[C@@H](CC(C)C)C(=O)N[C@@H](CC(C)C)C(=O)N[C@@H](CCC(=O)O)C(=O)NCC(=O)NCC(=O)N1CCC[C@H]1C(=O)N[C@@H](CO)C(=O)N[C@@H](CO)C(=O)NCC(=O)N[C@@H](C)C(=O)N1CCC[C@H]1C(=O)N1CCC[C@H]1C(=O)N1CCC[C@H]1C(=O)N[C@@H](Cc1ccncc1)C(=O)NCC(=O)N[C@@H](CO)C(N)=O [Example 251]
pEC50 (hGIPR [1]): 9.82 | pEC50 (hGLP-1R [4]): 8.58 | pEC50 (hGcgR): 8.16 | pEC50 (human GcgR): 5.82 | pEC50 (hGLP-1R [3]): 6.52

Structure (SMILES): CC[C@H](C)[C@H](NC(=O)[C@H](Cc1ccccc1)NC(=O)[C@H](C)NC(=O)C(C)(C)NC(=O)[C@H](CCC(N)=O)NC(=O)[C@H](C)NC(=O)[C@H](CCCCNC(=O)COCCOCCNC(=O)CC[C@H](NC(=O)CCCCCCCCCCCCCCCCC(=O)O)C(=O)O)NC(=O)[C@H](CCCCN)NC(=O)[C@H](CC(=O)O)NC(=O)[C@H](CC(C)C)NC(=O)[C@](C)(CC(C)C)NC(=O)[C@H](CCCN)NC(=O)[C@H](CO)NC(=O)[C@H](Cc1ccccc1)NC(=O)[C@H](CC(=O)O)NC(=O)[C@H](CO)NC(=O)[C@@H](NC(=O)[C@H](Cc1ccccc1)NC(=O)[C@@H](NC(=O)CNC(=O)[C@H](CCC(N)=O)NC(=O)C(C)(C)NC(=O)[C@@H](N)Cc1ccc(O)cc1)[C@@H](C)O)[C@@H](C)O)C(=O)N[C@@H](CCC(=O)O)C(=O)N[C@@H](Cc1ccc(O)cc1)C(=O)N[C@@H](CC(C)C)C(=O)N[C@@H](CC(C)C)C(=O)N[C@@H](CCC(=O)O)C(=O)NC(C)(C)C(=O)NCC(=O)N[C@@H](CCC(=O)O)C(=O)N[C@@H](CO)C(=O)N[C@@H](CO)C(=O)NCC(=O)N[C@@H](C)C(=O)N1CCC[C@H]1C(=O)N1CCC[C@H]1C(=O)N1CCC[C@H]1C(=O)N[C@@H](CO)C(=O)NCC(=O)N[C@@H](CCC(=O)O)C(N)=O [Example 246]
pEC50 (hGIPR [1]): 9.97 | pEC50 (hGLP-1R [4]): 8.41 | pEC50 (hGcgR): 8.62 | pEC50 (human GcgR): 6.19 | pEC50 (hGLP-1R [3]): 6.07

Structure (SMILES): CC[C@H](C)[C@H](NC(=O)[C@H](Cc1ccccc1)NC(=O)[C@H](C)NC(=O)[C@](C)(Cc1ccncc1)NC(=O)[C@H](CCC(N)=O)NC(=O)[C@H](C)NC(=O)[C@H](CCCCNC(=O)CC[C@H](NC(=O)CC[C@H](NC(=O)CCCCCCCCCCCCCCCCC(=O)O)C(=O)O)C(=O)O)NC(=O)[C@H](CCCN)NC(=O)[C@H](CC(=O)O)NC(=O)[C@H](CC(C)C)NC(=O)[C@](C)(CC(C)C)NC(=O)[C@H](CCC(N)=O)NC(=O)[C@H](CO)NC(=O)[C@H](Cc1ccncc1)NC(=O)[C@H](CC(=O)O)NC(=O)[C@H](CO)NC(=O)[C@@H](NC(=O)[C@H](Cc1ccccc1)NC(=O)[C@@H](NC(=O)CNC(=O)[C@H](CCC(N)=O)NC(=O)C(C)(C)NC(=O)[C@@H](N)Cc1ccc(O)cc1)[C@@H](C)O)[C@@H](C)O)C(=O)N[C@@H](CCC(=O)O)C(=O)N[C@@H](Cc1ccc(O)cc1)C(=O)N[C@@H](CC(C)C)C(=O)N[C@H](C(=O)N[C@@H](CCC(=O)O)C(=O)N[C@H](C)C(=O)NCC(=O)N1CCC[C@H]1C(=O)N[C@@H](CO)C(=O)N[C@@H](CO)C(=O)NCC(=O)N[C@@H](C)C(=O)N1CCC[C@H]1C(=O)N1CCC[C@H]1C(=O)N1CCC[C@H]1C(=O)N[C@@H](CCC(=O)O)C(=O)NCC(=O)N[C@@H](CO)C(N)=O)[C@@H](C)CC [Example 1021]
pEC50 (hGIPR [1]): 9.66 | pEC50 (hGLP-1R [4]): 8.89 | pEC50 (hGcgR): 8.36 | pEC50 (human GcgR): 6.23 | pEC50 (hGLP-1R [3]): 6.76

pEC50 (hGIPR [1]): 9.59 | pEC50 (hGLP-1R [4]): 9.66 | pEC50 (hGcgR): 8.73 | pEC50 (human GcgR; HEK-293 clonal cells expressing hGcgR, in the presence of 1% HSA, geometric mean of relative EC50): 6.51 | pEC50 (hGLP-1R [3]; HEK-293 clonal cells expressing hGLP-1R, in the presence of 1% HSA, geometric mean of relative EC50): 7.61
Structure (SMILES): CC[C@H](C)[C@H](NC(=O)[C@H](Cc1ccccc1)NC(=O)[C@H](C)NC(=O)C(C)(C)NC(=O)[C@H](C)NC(=O)[C@H](C)NC(=O)[C@H](CCCCNC(=O)COCCOCCNC(=O)CC[C@H](NC(=O)CCCCCCCCCCCCCCCCC(=O)O)C(=O)O)NC(=O)[C@H](CCCCN)NC(=O)[C@H](CC(=O)O)NC(=O)[C@H](CC(C)C)NC(=O)[C@](C)(CC(C)C)NC(=O)[C@@H](NC(=O)[C@H](CO)NC(=O)[C@H](Cc1ccc(O)cc1)NC(=O)[C@H](CC(=O)O)NC(=O)[C@H](CO)NC(=O)[C@@H](NC(=O)[C@](C)(Cc1ccccc1F)NC(=O)[C@@H](NC(=O)CNC(=O)[C@H](CCC(N)=O)NC(=O)C(C)(C)NC(=O)[C@@H](N)Cc1c[nH]cn1)[C@@H](C)O)[C@@H](C)O)[C@@H](C)CC)C(=O)N[C@@H](CCC(=O)O)C(=O)N[C@@H](Cc1ccc(O)cc1)C(=O)N[C@@H](CC(C)C)C(=O)N[C@H](C(=O)N[C@@H](CCC(=O)O)C(=O)N[C@H](C(=O)NCC(=O)N1CCC[C@H]1C(=O)N[C@@H](CO)C(=O)N[C@@H](CO)C(=O)NCC(=O)N[C@@H](CCC(=O)O)C(=O)N1CCC[C@H]1C(=O)N1CCC[C@H]1C(=O)N1CCC[C@H]1C(=O)N[C@@H](CO)C(=O)N[C@@H](CCC(=O)O)C(=O)NCC(N)=O)[C@@H](C)O)[C@@H](C)CC [Example 291]

Structure (SMILES): CC[C@H](C)[C@H](NC(=O)[C@H](Cc1ccccc1)NC(=O)[C@H](CCCN)NC(=O)C(C)(C)NC(=O)[C@H](CCC(N)=O)NC(=O)[C@H](C)NC(=O)[C@H](CCCCNC(=O)COCCOCCNC(=O)CC[C@H](NC(=O)CCCCCCCCCCCCCCCCCCC(=O)O)C(=O)O)NC(=O)[C@H](CCCN)NC(=O)[C@H](CC(=O)O)NC(=O)[C@H](CC(C)C)NC(=O)[C@](C)(CC(C)C)NC(=O)[C@@H](NC(=O)[C@H](CO)NC(=O)[C@H](Cc1ccncc1)NC(=O)[C@H](CC(=O)O)NC(=O)[C@H](CO)NC(=O)[C@@H](NC(=O)[C@](C)(Cc1ccccc1F)NC(=O)[C@@H](NC(=O)CNC(=O)[C@H](CCC(N)=O)NC(=O)C(C)(C)NC(=O)[C@@H](N)Cc1ccc(O)cc1)[C@@H](C)O)[C@@H](C)O)[C@@H](C)CC)C(=O)N[C@H](CCC(=O)O)C(=O)N[C@@](C)(Cc1ccc(O)cc1)C(=O)N[C@@H](CC(C)C)C(=O)N[C@@H](CC(C)C)C(=O)N[C@@H](CCC(=O)O)C(=O)NCC(=O)NCC(=O)N1CCC[C@H]1C(=O)N[C@@H](CO)C(=O)N[C@@H](CO)C(=O)NCC(=O)N[C@@H](CCC(=O)O)C(=O)N1CCC[C@H]1C(=O)N1CCC[C@H]1C(=O)N1CCC[C@H]1C(=O)N[C@@H](CO)C(N)=O [Example 365]
pEC50 (hGIPR [1]): 10.47 | pEC50 (hGLP-1R [4]): 9.58 | pEC50 (hGcgR): 8.37 | pEC50 (human GcgR): 5.83 | pEC50 (hGLP-1R [3]): 7.12
